Data reported in the supplement of paper PMC10627819.

Key:
B. subtilis 168 [1] = assay: Bliss interaction score (quartile over a dose matrix) (fitness difference); higher = more antagonism (negative = synergy)
In short: (§1)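 At entry into stationary phase, OD595 was recorded and divided by the robust mean of the no-drug wells on that plate, with any value above 1 set to 1. This gives the fitness measure used throughout. Single-drug fitness was inferred from combination data, and the Bliss score, observed minus product-expected fitness, is shown as quartiles across technical, biological and donor/recipient replicates.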

S. aureus Newman [2] = assay: as above
In short: as §1

S. pneumoniae D39V [3] = assay: as above
In short: as §1

S. aureus DSM 20231 [4] = assay: as above
In short: as §1

S. aureus Newman [5] = assay: fitness (endpoint OD595 vs no drug) (fraction); higher = more growth; settings: one replicate
In short: (§2)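 Bacterial growth was followed in 384-well plates seeded at OD595 0.01, with 30 µl per well, or 55 µl for S. pneumoniae, in TSB, LB Lennox or CY at 37 °C. OD595 was read every 30 min for 14 h, and each reading had the first reading subtracted as background. Fitness is the background-corrected optical density at entry into stationary phase divided by the robust mean of the no-drug control wells. This ratio is capped at 1.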

S. pneumoniae D39V [6] = assay: as above
In short: as §2

B. subtilis 168 [7] = assay: as above
In short: as §2

S. aureus DSM 20231 [8] = assay: as above
In short: as §2
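For Bliss interaction score (quartile over a dose matrix) in this document: first quartile when negative (synergy) and third quartile when positive (antagonism).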

CO/N=C(\C(=O)N[C@@H]1C(=O)N2C(C(=O)[O-])=C(C[N+]3(C)CCCC3)CS[C@H]12)c1csc(N)n1 [Cefepime] + C/C(=C\C(=O)OCCCCCCCCC(=O)O)C[C@@H]1OC[C@H](C[C@@H]2O[C@H]2[C@@H](C)[C@H](C)O)[C@@H](O)[C@H]1O [Pseudomonic acid]
Settings	Bliss interaction score
B. subtilis 168 [1]	0.0521
S. aureus DSM 20231 [4]	0.0141
S. aureus Newman [2]	0.0093
S. pneumoniae D39V [3]	0.0923

fitness
Settings	first compound 0.007 µg/mL	first compound 0.0078 µg/mL	first compound 0.014 µg/mL	first compound 0.0155 µg/mL	first compound 0.028 µg/mL	first compound 0.031 µg/mL	first compound 0.125 µg/mL	first compound 0.25 µg/mL	first compound 0.5 µg/mL
S. aureus Newman [5], partner 0.0313 µg/mL	–	–	–	–	–	–	0.0486	0.044	0.0558
S. aureus Newman [5], partner 0.0625 µg/mL	–	–	–	–	–	–	0.0381	0.0306	0.0329
S. aureus Newman [5], partner 0.125 µg/mL	–	–	–	–	–	–	0.0329	0.0557	0.0514
S. pneumoniae D39V [6], partner 0.03 µg/mL	≥ 1	0.93	≥ 1	0.945	≥ 1	0.747	–	–	–
S. pneumoniae D39V [6], partner 0.06 µg/mL	0.924	0.814	0.976	0.796	0.968	0.631	–	–	–
S. pneumoniae D39V [6], partner 0.12 µg/mL	0.583	0.578	0.631	0.56	0.568	0.382	–	–	–

CCCCCCCCCC(=O)N[C@@H](Cc1c[nH]c2ccccc12)C(=O)N[C@H](CC(N)=O)C(=O)N[C@@H](CC(=O)O)C(=O)N[C@@H]1C(=O)NCC(=O)N[C@@H](CCCN)C(=O)N[C@@H](CC(=O)O)C(=O)N[C@H](C)C(=O)N[C@@H](CC(=O)O)C(=O)NCC(=O)N[C@H](CO)C(=O)N[C@@H]([C@H](C)CC(=O)O)C(=O)N[C@@H](CC(=O)c2ccccc2N)C(=O)O[C@@H]1C [Daptomycin] + CC(=O)NC[C@H]1CN(c2ccc(N3CCOCC3)c(F)c2)C(=O)O1 [Linezolid]
Settings	Bliss interaction score
B. subtilis 168 [1]	0.0563
S. aureus DSM 20231 [4]	0.0745
S. aureus Newman [2]	0.0604
S. pneumoniae D39V [3]	-0.141

one replicate
Settings	fitness
B. subtilis 168 [7], first compound 0.125 µg/mL, partner 0.0625 µg/mL	0.944
B. subtilis 168 [7], first compound 0.25 µg/mL, partner 0.0625 µg/mL	0.932
B. subtilis 168 [7], first compound 0.5 µg/mL, partner 0.0625 µg/mL	0.802
B. subtilis 168 [7], first compound 1 µg/mL, partner 0.125 µg/mL	0.6
B. subtilis 168 [7], first compound 1 µg/mL, partner 0.25 µg/mL	0.279
B. subtilis 168 [7], first compound 1 µg/mL, partner 0.5 µg/mL	0.0175
S. aureus DSM 20231 [8], first compound 0.125 µg/mL, partner 0.125 µg/mL	0.729
S. aureus DSM 20231 [8], first compound 0.125 µg/mL, partner 1 µg/mL	0.0431
S. aureus DSM 20231 [8], first compound 0.25 µg/mL, partner 0.125 µg/mL	0.869
S. aureus DSM 20231 [8], first compound 0.25 µg/mL, partner 1 µg/mL	0.0221
S. aureus DSM 20231 [8], first compound 0.5 µg/mL, partner 1 µg/mL	0.0214

fitness
Settings	first compound 0.125 µg/mL	first compound 0.25 µg/mL	first compound 0.5 µg/mL	first compound 1 µg/mL	first compound 2 µg/mL	first compound 4 µg/mL
B. subtilis 168 [7], partner 0.125 µg/mL	0.604	0.605	0.508	–	–	–
B. subtilis 168 [7], partner 0.25 µg/mL	0.0809	–	–	–	–	–
B. subtilis 168 [7], partner 0.5 µg/mL	0.0486	0.0567	0.0348	–	–	–
S. aureus DSM 20231 [8], partner 0.125 µg/mL	–	–	0.844	0.928	0.951	–
S. aureus DSM 20231 [8], partner 0.25 µg/mL	0.629	0.595	0.651	0.823	0.775	–
S. aureus DSM 20231 [8], partner 0.5 µg/mL	0.19	0.177	0.257	0.319	0.335	–
S. pneumoniae D39V [6], partner 0.105 µg/mL	–	–	–	0.741	0.786	0.77
S. pneumoniae D39V [6], partner 0.2 µg/mL	–	–	–	0.409	0.413	0.412
S. pneumoniae D39V [6], partner 0.21 µg/mL	–	–	–	0.651	0.689	0.689
S. pneumoniae D39V [6], partner 0.4 µg/mL	–	–	–	0.207	0.22	0.205
S. pneumoniae D39V [6], partner 0.42 µg/mL	–	–	–	0.476	0.447	0.554
S. pneumoniae D39V [6], partner 0.8 µg/mL	–	–	–	0.0731	0.0931	0.0732

CCCCCCCCCC(=O)N[C@@H](Cc1c[nH]c2ccccc12)C(=O)N[C@H](CC(N)=O)C(=O)N[C@@H](CC(=O)O)C(=O)N[C@@H]1C(=O)NCC(=O)N[C@@H](CCCN)C(=O)N[C@@H](CC(=O)O)C(=O)N[C@H](C)C(=O)N[C@@H](CC(=O)O)C(=O)NCC(=O)N[C@H](CO)C(=O)N[C@@H]([C@H](C)CC(=O)O)C(=O)N[C@@H](CC(=O)c2ccccc2N)C(=O)O[C@@H]1C [Daptomycin] + CCC[C@@H]1C[C@@H](C(=O)N[C@@H]([C@H]2O[C@H](SC)[C@H](O)[C@@H](O)[C@H]2O)[C@@H](C)O)N(C)C1 [Lincomycin]
Settings	Bliss interaction score
B. subtilis 168 [1]	-0.0659
S. aureus DSM 20231 [4]	0.099
S. aureus Newman [2]	0.0732
S. pneumoniae D39V [3]	-0.133

fitness
Settings	partner 0.1 µg/mL	partner 0.2 µg/mL	partner 0.215 µg/mL	partner 0.4 µg/mL	partner 0.43 µg/mL	partner 0.8 µg/mL	partner 0.86 µg/mL
B. subtilis 168 [7], first compound 0.125 µg/mL	0.865	0.904	–	0.863	–	–	–
B. subtilis 168 [7], first compound 0.25 µg/mL	0.869	0.901	–	0.848	–	–	–
B. subtilis 168 [7], first compound 0.5 µg/mL	0.937	0.905	–	–	–	–	–
S. aureus DSM 20231 [8], first compound 0.5 µg/mL	0.962	0.821	–	–	–	–	–
S. aureus DSM 20231 [8], first compound 1 µg/mL	0.911	0.806	–	–	–	–	–
S. aureus DSM 20231 [8], first compound 2 µg/mL	0.937	0.817	–	–	–	–	–
S. pneumoniae D39V [6], first compound 1 µg/mL	–	0.409	0.764	0.22	0.697	0.053	0.396
S. pneumoniae D39V [6], first compound 2 µg/mL	–	0.405	0.764	0.241	0.72	0.0442	0.408
S. pneumoniae D39V [6], first compound 4 µg/mL	–	0.366	0.802	0.204	0.702	0.0329	0.411

fitness, B. subtilis 168 [7], one replicate
Settings	first compound 0.25 µg/mL	first compound 0.5 µg/mL	first compound 1 µg/mL
partner 0.4 µg/mL	–	–	0.686
partner 0.8 µg/mL	0.851	0.788	0.647
partner 1.6 µg/mL	0.797	0.81	0.657

CCCCCCCCCC(=O)N[C@@H](Cc1c[nH]c2ccccc12)C(=O)N[C@H](CC(N)=O)C(=O)N[C@@H](CC(=O)O)C(=O)N[C@@H]1C(=O)NCC(=O)N[C@@H](CCCN)C(=O)N[C@@H](CC(=O)O)C(=O)N[C@H](C)C(=O)N[C@@H](CC(=O)O)C(=O)NCC(=O)N[C@H](CO)C(=O)N[C@@H]([C@H](C)CC(=O)O)C(=O)N[C@@H](CC(=O)c2ccccc2N)C(=O)O[C@@H]1C [Daptomycin] + COc1cc(Cc2cnc(N)nc2N)cc(OC)c1OC [Trimethoprim]
Settings	Bliss interaction score
B. subtilis 168 [1]	0.0723
S. aureus DSM 20231 [4]	-0.0443
S. aureus Newman [2]	0.0713
S. pneumoniae D39V [3]	-0.192

fitness, B. subtilis 168 [7], one replicate
Settings	partner 0.1 µg/mL	partner 0.125 µg/mL	partner 0.2 µg/mL	partner 0.25 µg/mL	partner 0.4 µg/mL	partner 0.5 µg/mL	partner 1 µg/mL	partner 2 µg/mL
first compound 0.125 µg/mL	0.908	0.711	0.755	–	0.533	–	0.328	0.251
first compound 0.25 µg/mL	≥ 1	–	0.756	–	0.555	–	0.226	0.161
first compound 0.5 µg/mL	0.918	–	0.657	–	0.512	–	0.144	0.149
first compound 1 µg/mL	–	0.35	–	0.22	–	0.115	–	–

fitness
Settings	first compound 0.125 µg/mL	first compound 0.25 µg/mL	first compound 0.5 µg/mL	first compound 1 µg/mL	first compound 2 µg/mL
B. subtilis 168 [7], partner 0.125 µg/mL	–	0.692	0.659	–	–
B. subtilis 168 [7], partner 0.25 µg/mL	–	–	0.552	–	–
B. subtilis 168 [7], partner 0.5 µg/mL	0.454	–	0.446	–	–
S. aureus DSM 20231 [8], partner 0.125 µg/mL	–	–	0.788	0.745	0.839
S. aureus DSM 20231 [8], partner 0.25 µg/mL	0.573	0.553	0.645	0.657	0.695
S. aureus DSM 20231 [8], partner 0.5 µg/mL	0.128	0.0962	–	0.304	0.37
S. aureus DSM 20231 [8], partner 1 µg/mL	0.0396	0.0212	0.0174	–	–

CCN(CC)CCOC(=O)c1ccc(N)cc1 [Procaine] + COc1cc(Cc2cnc(N)nc2N)cc(OC)c1OC [Trimethoprim]
Settings	Bliss interaction score
B. subtilis 168 [1]	0.0837
S. aureus DSM 20231 [4]	-0.0543
S. aureus Newman [2]	0.0842
S. pneumoniae D39V [3]	0.0954

fitness, B. subtilis 168 [7], one replicate
Settings	partner 0.1 µg/mL	partner 0.125 µg/mL	partner 0.2 µg/mL	partner 0.4 µg/mL	partner 1 µg/mL	partner 2 µg/mL
first compound 85.5 µg/mL	0.877	0.771	0.722	0.555	0.393	0.277
first compound 171 µg/mL	0.836	0.775	0.783	0.544	0.444	0.295
first compound 342 µg/mL	0.83	0.742	0.832	0.555	0.37	0.383

fitness
Settings	first compound 85.5 µg/mL	first compound 171 µg/mL	first compound 342 µg/mL
B. subtilis 168 [7], partner 0.25 µg/mL	0.704	0.688	0.69
B. subtilis 168 [7], partner 0.5 µg/mL	0.531	0.562	0.498
S. aureus DSM 20231 [8], partner 0.125 µg/mL	0.669	0.744	0.709
S. aureus DSM 20231 [8], partner 0.25 µg/mL	0.565	0.607	0.613
S. aureus DSM 20231 [8], partner 0.5 µg/mL	0.118	0.123	0.144
S. aureus DSM 20231 [8], partner 1 µg/mL	0.0274	0.0353	0.021
